From ChEMBL document CHEMBL1201862, “PubChem BioAssay data set” (2004)
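Test compounds were applied to cells in 96-well plates for 48 hours at 5 doses. GI50: concentration for 50% inhibition of growth.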 Active and inactive are the calls of the source. No stated cut-off is given here; in the data, active = GI50 up to about 1.1 µM and inactive = higher.

What was measured:
Experiment in all cases: DTP human tumour cell line panel, 48 h
SW-620 = test system: SW-620
Malme-3M = test system: Malme-3M
DU-145 = test system: DU-145
UACC-62 = test system: UACC-62
MDA-MB-435 = test system: MDA-MB-435
BT-549 = test system: BT-549
SNB-19 = test system: SNB-19
NCI-H226 = test system: NCI-H226
U-251 = test system: U-251
IGROV-1 = test system: IGROV-1
M14 = test system: M14
OVCAR-8 = test system: OVCAR-8
LOX IMVI = test system: LOX IMVI
SK-OV-3 = test system: SK-OV-3
HCC 2998 = test system: HCC 2998
HOP-62 = test system: HOP-62
MDA-MB-231 = test system: MDA-MB-231
A549 = test system: A549
UACC-257 = test system: UACC-257
NCI-H522 = test system: NCI-H522

SMILES | GI50 (SW-620) | GI50 (Malme-3M) | GI50 (DU-145) | GI50 (UACC-62) | GI50 (MDA-MB-435) | GI50 (BT-549) | GI50 (SNB-19) | GI50 (NCI-H226) | GI50 (U-251) | GI50 (IGROV-1) | GI50 (M14) | GI50 (OVCAR-8) | GI50 (LOX IMVI) | GI50 (SK-OV-3) | GI50 (HCC 2998) | GI50 (HOP-62) | GI50 (MDA-MB-231) | GI50 (A549) | GI50 (UACC-257) | GI50 (NCI-H522)
OC(c1cc(-c2ccccc2)nc2c1ccc1ccccc12)C1CCCCN1 (stereo not given) | 1.78 µM (inactive) | 1.38 µM (inactive) | 2.02 µM (inactive) | 1.85 µM (inactive) | 1.83 µM (inactive) | 3.97 µM (inactive) | 1.82 µM (inactive) | 2.95 µM (inactive) | 1.76 µM (inactive) | 1.68 µM (inactive) | 1.73 µM (inactive) | 1.96 µM (inactive) | 1.11 µM (active) | 1.88 µM (inactive) | 0.59 µM (active) | 1.67 µM (inactive) | 1.79 µM (inactive) | 1.85 µM (inactive) | 1.82 µM (inactive) | 1.58 µM (inactive)
Brc1ccc(-c2[nH]c3ccccc3c2/C=N\Nc2ccc(-c3nc4ccccc4[nH]3)cc2)cc1 | < 0.01 µM (active) | < 0.01 µM (active) | < 0.01 µM (active) | < 0.01 µM (active) | < 0.01 µM (active) | 2.08 µM (inactive) | < 0.01 µM (active) | < 0.01 µM (active) | < 0.01 µM (active) | < 0.01 µM (active) | < 0.01 µM (active) | < 0.01 µM (active) | < 0.01 µM (active) | < 0.01 µM (active) | < 0.01 µM (active) | < 0.01 µM (active) | < 0.01 µM (active) | < 0.01 µM (active) | 3.17 µM (inactive) | < 0.01 µM (active)
CCN(CC)C(=S)SNc1ccc(S(N)(=O)=O)cc1 | 13.7 µM (inactive) | 42.1 µM (inactive) | > 92.9 µM (inactive) | > 100 µM (inactive) | > 57.7 µM (inactive) | 67.8 µM (inactive) | > 83.4 µM (inactive) | > 100 µM (inactive) | 50.4 µM (inactive) | 2.11 µM (inactive) | 24.5 µM (inactive) | 23.3 µM (inactive) | 38.9 µM (inactive) | > 100 µM (inactive) | > 100 µM (inactive) | 69.8 µM (inactive) | 60.5 µM (inactive) | 74.6 µM (inactive) | > 100 µM (inactive) | 0.0755 µM (active)
COC(=O)CCNC(=O)OCc1ccccc1 | > 100 µM (inactive) | > 100 µM (inactive) | > 100 µM (inactive) | > 100 µM (inactive) | > 100 µM (inactive) | > 100 µM (inactive) | > 100 µM (inactive) | > 100 µM (inactive) | > 100 µM (inactive) | > 100 µM (inactive) | > 100 µM (inactive) | > 100 µM (inactive) | > 100 µM (inactive) | > 100 µM (inactive) | > 100 µM (inactive) | > 100 µM (inactive) | > 100 µM (inactive) | > 100 µM (inactive) | > 100 µM (inactive) | > 100 µM (inactive)
COC(=O)C1=C(C)NC(C)=C(C(=O)OC)C1c1ccc(N=O)cc1 | 3.61 µM (inactive) | 11.5 µM (inactive) | 12.9 µM (inactive) | 15.3 µM (inactive) | 16.2 µM (inactive) | 8.87 µM (inactive) | 38.7 µM (inactive) | 16 µM (inactive) | 17.4 µM (inactive) | 16.1 µM (inactive) | 11.2 µM (inactive) | 8.45 µM (inactive) | 5.9 µM (inactive) | 16.6 µM (inactive) | 16.9 µM (inactive) | 23.8 µM (inactive) | 11.4 µM (inactive) | 24.5 µM (inactive) | 8.91 µM (inactive) | 1.15 µM (inactive)
Nc1nc(N)c2ncn(Cc3c(Cl)cccc3Cl)c2n1 | > 100 µM (inactive) | > 100 µM (inactive) | > 100 µM (inactive) | > 100 µM (inactive) | > 100 µM (inactive) | > 100 µM (inactive) | > 100 µM (inactive) | > 100 µM (inactive) | > 100 µM (inactive) | > 100 µM (inactive) | > 100 µM (inactive) | > 100 µM (inactive) | > 100 µM (inactive) | > 100 µM (inactive) | > 100 µM (inactive) | > 100 µM (inactive) | > 100 µM (inactive) | > 100 µM (inactive) | > 100 µM (inactive) | > 100 µM (inactive)
Cc1nnc(N)nc1/C=C\c1cccs1 | 25.5 µM (inactive) | 13.4 µM (inactive) | 79.6 µM (inactive) | 14.9 µM (inactive) | 18 µM (inactive) | 42.9 µM (inactive) | 33.6 µM (inactive) | 17.5 µM (inactive) | 29.9 µM (inactive) | 12 µM (inactive) | 16.2 µM (inactive) | 17 µM (inactive) | 29.6 µM (inactive) | 36.5 µM (inactive) | 14.6 µM (inactive) | 16.7 µM (inactive) | 87.3 µM (inactive) | 27.7 µM (inactive) | 32.6 µM (inactive) | 4.06 µM (inactive)
Cc1c(C)c(C)c(Cn2[nH]c(=O)n(C)c2=O)c(C)c1C | > 100 µM (inactive) | > 100 µM (inactive) | > 100 µM (inactive) | > 100 µM (inactive) | > 100 µM (inactive) | > 100 µM (inactive) | > 100 µM (inactive) | > 100 µM (inactive) | > 100 µM (inactive) | > 100 µM (inactive) | > 100 µM (inactive) | > 100 µM (inactive) | > 100 µM (inactive) | > 100 µM (inactive) | > 100 µM (inactive) | > 100 µM (inactive) | > 100 µM (inactive) | > 100 µM (inactive) | > 100 µM (inactive) | > 100 µM (inactive)
Nc1nc(Sc2ccc([N+](=O)[O-])c3nonc23)c2nc[nH]c2n1 | 1.01 µM (active) | 1.02 µM (active) | 0.705 µM (active) | 0.43 µM (active) | 0.59 µM (active) | 2.07 µM (inactive) | 15.8 µM (inactive) | 1.75 µM (inactive) | 5.86 µM (inactive) | 3.57 µM (inactive) | 0.363 µM (active) | 0.721 µM (active) | 0.232 µM (active) | 0.425 µM (active) | 1.08 µM (active) | 0.561 µM (active) | 0.731 µM (active) | 3.69 µM (inactive) | 2.13 µM (inactive) | 0.733 µM (active)
[O-][N+](CCO)(CCO)c1ncnc2[nH]cnc12 | > 100 µM (inactive) | > 100 µM (inactive) | > 100 µM (inactive) | > 100 µM (inactive) | > 100 µM (inactive) | > 100 µM (inactive) | > 100 µM (inactive) | > 100 µM (inactive) | > 100 µM (inactive) | > 100 µM (inactive) | > 100 µM (inactive) | > 100 µM (inactive) | > 100 µM (inactive) | > 100 µM (inactive) | > 100 µM (inactive) | > 100 µM (inactive) | > 100 µM (inactive) | > 100 µM (inactive) | > 100 µM (inactive) | > 100 µM (inactive)
